For experiment [1], the target named is T1, SGF29 (Homo sapiens, UniProt Q96ES7).
T1 construct: SGF29 (aa 115–293); His (N, cleaved yes); made in house; host or cells: E. coli BL21 (DE3) Codon plus RIL
As to the kind of experiment: ITC binding to SGF29. The note with it: Fig. 1c. The text has this:
(§1) The coding DNA fragments of following Tudor domains were cloned into pET28-MHL vector: SMN (aa 82–147), UHRF1 (aa 126–285), SMNDC1 (aa 53–130), TDRD3 (aa 554–611), SND1 (aa 650–910), TDRD2 (aa 327–420), FXR1 (aa 2–132), PHF1 (aa 28–87), SGF29 (aa 115–293), JMJD2A (aa 897–1101), 53BP1 (aa 1483–1606), SETDB1 (aa 190–410), LBR (aa 1–67), ZGPAT (aa 120–271). The coding regions of chromodomain of CBX7 (aa 8–62), PWWP domain of DNMT3A (aa 275–417), WD40 repeats of WDR5 (aa 24–334) and CW domain of ZCWPW2 (aa 21–78) were also subcloned into pET28-MHL vector to generate N-terminally His-tagged fusion protein. The MBT repeats of L3MBTL1 (aa 200–522) and L3MBTL2 (aa 170–625) were subcloned into pET28GST-LIC vector to generate N-terminally GST-His-tagged fusion protein. All the plasmids were generated by ligase independent cloning (Vazyme Biotech, C112 or ABclonal Technology, RK21020). […] The molecular weight of all protein samples was measured by mass spectrometry.
(§2) For the ITC measurement, the concentrated proteins were diluted into 20 mM Tris-HCl, pH 7.5, 150 mM NaCl (ITC buffer); the lyophilized compounds were dissolved in the same buffer, and the pH value was adjusted by adding 2 M NaOH or 2 M HCl. […] Compound concentrations were calculated from the mass and the volume of the solvent. […]

Experiment [2] addresses T2, SETDB1 (Homo sapiens, UniProt Q15047).
T2 construct: SETDB1 (aa 190–410); His (N, cleaved yes); made in house; host or cells: E. coli BL21 (DE3) Codon plus RIL
As to the kind of experiment: ITC binding to SETDB1. The note with it: Fig. 1c.
From the text: as §1, §2

SMILES strings stand for the structures. Where only a bound is given, the exact number is not on record here.

T1 sequence (Q96ES7 115-293): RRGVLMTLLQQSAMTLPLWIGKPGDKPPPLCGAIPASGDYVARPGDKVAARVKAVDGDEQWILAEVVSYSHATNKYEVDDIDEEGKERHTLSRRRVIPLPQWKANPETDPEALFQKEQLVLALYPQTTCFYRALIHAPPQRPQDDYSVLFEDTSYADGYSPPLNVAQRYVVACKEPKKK

Turning to `Cn1c2c(c(=N)c3c1CCC3)CCC2` [Compound 1, 4-methyl-2,3,4,5,6,7-hexahydrodicyclopenta[b,e]pyridin-8(1H)-imine], the Kd in experiment [1] and in experiment [2] was > 244 µM each time.

The term Kd denotes the constant that tells how readily two partners part at equilibrium. Higher therefore signals weaker binding.
